Patent US20110092521A1, “Methods of Treating Diseases Using Inhibitors of Nucleoside Phosphorylases and Nucleosidases” (priority 2006, published 2011)
Entries after “also recorded” stand apart in the source; their conditions may differ.

How the values were obtained:
[1] = test system: TRAMP (transgenic adenocarcinoma of mouse prostate) mice; test: Treatment of TRAMP mice (tumour mass, histology, MRI); assay type: in vivo; settings: for prostate cancer progression in the TRAMP mouse model: administered either alone or in combination with MTA
Experimental: MRI experiments were performed using a 9.4 T 21 cm bore horizontal bore magnet (Magnex Scientific) Varian INOVA MRI system (Fremont, Calif.) equipped with a 28 mm inner diameter quadrature birdcage coil. Mice were anesthetized with isoflurane inhalation anesthesia (1-1.5% in 100% O2 administered via a nose cone) and positioned in the MRI coil. Body temperature was maintained (37-38° C.) using a homeothermic warming system. After acquiring scout images, multi-slice spin-echo imaging with an echo time of 18 ms and a repetition time of 400 ms ms was performed. A 40 mm field of view with a 256×256 matrix size was used. Nine to 15 slices along the transverse, sagittal, and coronal planes were acquired in each multi-slice experiment with a slice thickness of 1 mm and the gap between slices of 0.5 mm. MRI data were processed off-line with MATLAB-based MRI analysis software.
Long-Term: Sterile solutions of 100 μM compound (2) (pH ˜6.4). Water bottles were autoclaved prior to filling with sterile inhibitor solutions. Water consumption was monitored every other day, with fresh inhibitor solution being administered to prevent bacterial growth. Mice were control-sacrificed and tissues (genitourinary system, liver, lungs) were collected for histology and polyamine analysis. Mass and dimensions of excised genitourinary system tumours were recorded. Sections of small intestine were also removed for toxicity analysis via H&E staining.

[2] = test system: FaDu xenografts; test: FaDu xenograft studies in NOD-SCID mice; assay type: in vivo, mouse
Experimental: NOD-SCID mice (6-8 weeks old) were obtained from Jackson Laboratory (Bar Harbor, Me.). FaDu cells (10^6) were inoculated into the dorsum of the hind foot. After 5 days, mice were treated with 9 mg/kg or 21 mg/kg body weight of compound (2) in drinking water or by daily i.p. injections of 5 mg/kg body weight of compound (2). After inoculation mice were assigned to treatment or control groups (n=5). Tumor volume (V) was determined from: V=(4/3)*(22/7)*1/8*(length*width*height). Differences between treatment cohorts were determined using the Student's t test Mice were weighed every 4-5 days, monitored for hair loss, loss of appetite, vomiting and diarrhoea. Total and differential blood and bone marrow analyses were performed after treatment with compound (2).

Compound	tumour growth and metastasis in TRAMP mice ([1]; 100 μM via drinking water, approximately 6-8 months)	prostate cancer progression in the TRAMP mouse model [1]	regrowth of tumor after removal of treatment ([2]; 28 days without treatment after 28 day therapy, mice receiving the two highest doses)	differences in animal weight or in total and differential blood counts between treatment and control groups ([2]; NOD-SCID mice with FaDu tumors, after 28 days of therapy)	growth of established FaDu xenografts (tumor growth) ([2]; NOD-SCID mice, 9 or 21 mg/kg in drinking water or 5 mg/kg daily i.p., from day 5, versus controls)
CSC[C@H]1CN(Cc2c[nH]c3c(N)ncnc23)C[C@@H]1O [compound (2), (3R,4S)-1-[(9-deazaadenin-9-yl)methyl]-3-hydroxy-4-(methylthiomethyl)pyrrolidine]	reduces tumour growth and metastasis	inhibited	no regrowth of tumor	No significant differences	significantly slower than in controls; also recorded: significantly delays the growth
CSC[C@H]1N[C@@H](c2c[nH]c3c(N)ncnc23)C(O)C1O (stereo partly drawn) [compound (3)]		inhibits prostate cancer progression			
